Results reported in US10285982B2, “3-(1H-pyrrolo[2,3-B]pyridin-2-yl)-1H-pyrazolo[3,4-C]pyridines and therapeutic uses thereof” (Samumed, LLC, priority 2015, dated 2019).

System: primary human fibroblasts derived from IPF patients (LL29 cells) treated with TGF-β1
Assay: Inhibition of fibrotic process, αSMA staining in TGF-β1 treated LL29 fibroblasts
Format: cell-based
Conditions: Fibroblast; for EC50: 96 h, % αSMA positive LL29 cells, TGF-β1 20 ng/mL, 4 days; for inhibition at 10 µM: given where EC50 >10 μM, αSMA, LL29 cells, TGF-β1, read-out: percent inhibition at 10 μM
Excerpt: Representative compounds were screened using primary human fibroblasts (derived from IPF patients) treated with TGF-β1 to determine their ability to inhibit the fibrotic process.
Primary human fibroblasts derived from IPF patients (LL29 cells) [^1Xiaoqiu Liu, et. al., “Fibrotic Lung Fibroblasts Show Blunted Inhibition by cAMP Due to Deficient cAMP Response Element-Binding Protein Phosphorylation”, Journal of Pharmacology and Experimental Therapeutics (2005), 315(2), 678-687; ^2Watts, K. L., et. al., “RhoA signaling modulates cyclin D1 expression in human lung fibroblasts; implications for idiopathic pulmonary fibrosis”, Respiratory Research (2006), 7(1), 88] were obtained from American Type Culture Collection (ATCC) and expanded in F12 medium supplemented with 15% Fetal Bovine Serum and Penicillin/Streptomycin.
Each compound was dissolved in DMSO as a 10 mM stock and used to prepare compound source plates. Serial dilution (1:2, 11-point dose-response curves from 10 μM to 1.87 nM) and compound transfer was performed using the ECHO 550 (Labcyte, Sunnyvale, Calif.) into 384-well clear bottom assay plates (Greiner Bio-One) with appropriate DMSO backfill for a final DMSO concentration of 0.1%. LL29 cells are plated at 1,500 cells/well in 80 μL/well F12 medium supplemented with 1% Fetal Bovine Serum. One hour after addition of the cells, TGF-β1 (Peprotech; 20 ng/mL) was added to the plates to induce fibrosis (ref. 1 and 2 above). Wells treated with TGF-β1 and containing DMSO were used as controls. Cells were incubated at 37° C. and 5% CO2 for 4 days. Following incubation for 4 days, SYTOX green nucleic acid stain (Life Technologies [Thermo Fisher Scientific]) was added to the wells at a final concentration of 1 μM and incubated at room temperature for 30 min. Cells were then fixed using 4% formaldehyde (Electron Microscopy Sciences), washed 3 times with PBS followed by blocking and permeabilization using 3% Bovine Serum Albumin (BSA; Sigma) and 0.3% Triton X-100 (Sigma) in PBS. Cells were then stained with antibody specific to α-smooth muscle actin (αSMA; Abcam) (ref. 1 and 2 above) in 3% Bovine Serum Albumin (BSA; Sigma) and 0.3% Triton X-100 (Sigma) in PBS, and incubated overnight at 4° C. Cells were then washed 3 times with PBS, followed by incubation with Alexa Flor-647 conjugated secondary antibody (Life Technologies [Thermo Fisher Scientific]) and DAPI at room temperature for 1 hour. Cells were then washed 3 times with PBS and plates were sealed for imaging. αSMA staining was imaged by excitation at 630 nm and emission at 665 nm and quantified using the Compartmental Analysis program on the CellInsight CX5 (Thermo Scientific). Dead or apoptotic cells were excluded from analysis based on positive SYTOX green staining. % of total cells positive for αSMA were counted in each well and normalized to the average of 11 wells treated with TGF-β1 on the same plate using Dotmatics' Studies Software. The normalized averages (fold change over untreated) of 3 replicate wells for each compound concentration were used to create dose-responses curves and EC50 values were calculated using non-linear regression curve fit in the Dotmatics' Studies Software. For EC50 of >10 μM, the percent inhibition at 10 μM is provided.

Row | Compound | EC50 [nM] | inhibition at 10 µM [%]
1 | CCC(=O)Nc1cncc(-c2cc3c(-c4cc5c(-c6cccc(F)c6)ccnc5[nH]4)n[nH]c3cn2)c1 [Compound 1, N-(5-(3-(4-(3-Fluorophenyl)-1H-pyrrolo[2,3-b]pyridin-2-yl)-1H-pyrazolo [3,4-c]pyridin-5-yl)pyridin-3-yl)propionamide] | 1620 | 
2 | Fc1cccc(-c2ccnc3[nH]c(-c4n[nH]c5cnc(-c6cccnc6)cc45)cc23)c1 [Compound 4, 3-(4-(3-Fluorophenyl)-1H-pyrrolo[2,3-b]pyridin-2-yl)-5-(pyridin-3-yl)-1H-pyrazolo[3,4-c]pyridine] | 1030 | 
3 | O=C(Nc1cncc(-c2cc3c(-c4cc5c(-c6cccc(F)c6)ccnc5[nH]4)n[nH]c3cn2)c1)c1ccccc1 [Compound 11, N-(5-(3-(4-(3-Fluorophenyl)-1H-pyrrolo[2,3-b]pyridin-2-yl)-1H-pyrazolo [3,4-c]pyridin-5-yl)pyridin-3-yl)benzamide] | 4210 | 
4 | CC(C)CC(=O)Nc1cncc(-c2cc3c(-c4cc5c(-c6ccc(F)cc6)ccnc5[nH]4)n[nH]c3cn2)c1 [Compound 30, N-(5-(3-(4-(4-Fluorophenyl)-1H-pyrrolo[2,3-b]pyridin-2-yl)-1H-pyrazolo [3,4-c]pyridin-5-yl)pyridin-3-yl)-3-methylbutanamide] | 820 | 
5 | CC(C)C(=O)Nc1cncc(-c2cc3c(-c4cc5c(-c6ccc(F)cc6)ccnc5[nH]4)n[nH]c3cn2)c1 [Compound 37, N-(5-(3-(4-(4-Fluorophenyl)-1H-pyrrolo[2,3-b]pyridin-2-yl)-1H-pyrazolo [3,4-c]pyridin-5-yl)pyridin-3-yl)isobutyramide] | 668 | 
6 | O=C(Nc1cncc(-c2cc3c(-c4cc5c(-c6ccc(F)cc6)ccnc5[nH]4)n[nH]c3cn2)c1)C1CCC1 [Compound 49, N-(5-(3-(4-(4-Fluorophenyl)-1H-pyrrolo[2,3-b]pyridin-2-yl)-1H-pyrazolo [3,4-c]pyridin-5-yl)pyridin-3-yl)cyclobutanecarboxamide] | 1530 | 
7 | O=C(Cc1ccccc1)Nc1cncc(-c2cc3c(-c4cc5c(-c6ccccc6F)ccnc5[nH]4)n[nH]c3cn2)c1 [Compound 66, N-(5-(3-(4-(2-Fluorophenyl)-1H-pyrrolo[2,3-b]pyridin-2-yl)-1H-pyrazolo [3,4-c]pyridin-5-yl)pyridin-3-yl)-2-phenylacetamide] | 501 | 
8 | CN(C)Cc1cncc(-c2cc3c(-c4cc5c(-c6ccccc6F)ccnc5[nH]4)n[nH]c3cn2)c1 [Compound 69, 1-(5-(3-(4-(2-Fluorophenyl)-1H-pyrrolo[2,3-b]pyridin-2-yl)-1H-pyrazolo [3,4-c]pyridin-5-yl)pyridin-3-yl)-N,N-dimethylmethanamine] | > 10000 | 0
9 | CCCCC(=O)Nc1cncc(-c2cc3c(-c4cc5c(-c6ccccc6F)ccnc5[nH]4)n[nH]c3cn2)c1 [Compound 75, N-(5-(3-(4-(2-Fluorophenyl)-1H-pyrrolo[2,3-b]pyridin-2-yl)-1H-pyrazolo [3,4-c]pyridin-5-yl)pyridin-3-yl)pentanamide] | 76 | 
10 | O=C(Nc1cncc(-c2cc3c(-c4cc5c(-c6ccccc6F)ccnc5[nH]4)n[nH]c3cn2)c1)C1CCCCC1 [Compound 79, N-(5-(3-(4-(2-Fluorophenyl)-1H-pyrrolo[2,3-b]pyridin-2-yl)-1H-pyrazolo [3,4-c]pyridin-5-yl)pyridin-3-yl)cyclohexanecarboxamide] | 1340 | 
11 | CC(C)(C)C(=O)Nc1cncc(-c2cc3c(-c4cc5c(-c6cccnc6)ccnc5[nH]4)n[nH]c3cn2)c1 [Compound 92, N-(5-(3-(4-(Pyridin-3-yl)-1H-pyrrolo[2,3-b]pyridin-2-yl)-1H-pyrazolo[3,4-c]pyridin-5-yl)pyridin-3-yl)pivalamide] | > 10000 | 2.4
12 | CC(C)CC(=O)Nc1cncc(-c2cc3c(-c4cc5c(-c6ccncc6)ccnc5[nH]4)n[nH]c3cn2)c1 [Compound 114, 3-Methyl-N-(5-(3-(4-(pyridin-4-yl)-1H-pyrrolo[2,3-b]pyridin-2-yl)-1H-pyrazolo[3,4-c]pyridin-5-yl)pyridin-3-yl)butanamide] | > 10000 | 0
13 | Cc1ccncc1-c1cc2c(-c3cc4c(-c5ccncc5)ccnc4[nH]3)n[nH]c2cn1 [Compound 117, 5-(4-Methylpyridin-3-yl)-3-(4-(pyridin-4-yl)-1H-pyrrolo[2,3-b]pyridin-2-yl)-1H-pyrazolo[3,4-c]pyridine] | 4430 | 
14 | O=C(Cc1ccccc1)Nc1cncc(-c2cc3c(-c4cc5c(-c6ccncc6)ccnc5[nH]4)n[nH]c3cn2)c1 [Compound 122, 2-Phenyl-N-(5-(3-(4-(pyridin-4-yl)-1H-pyrrolo[2,3-b]pyridin-2-yl)-1H-pyrazolo[3,4-c]pyridin-5-yl)pyridin-3-yl)acetamide] | > 10000 | 8.1
15 | O=C(Nc1cncc(-c2cc3c(-c4cc5c(-c6ccncc6)ccnc5[nH]4)n[nH]c3cn2)c1)C1CCC1 [Compound 133, N-(5-(3-(4-(Pyridin-4-yl)-1H-pyrrolo[2,3-b]pyridin-2-yl)-1H-pyrazolo[3,4-c]pyridin-5-yl)pyridin-3-yl)cyclobutanecarboxamide] | 2600 | 
16 | O=C(Nc1cncc(-c2cc3c(-c4cc5c(-c6ccncc6)ccnc5[nH]4)n[nH]c3cn2)c1)C1CCCCC1 [Compound 135, N-(5-(3-(4-(Pyridin-4-yl)-1H-pyrrolo[2,3-b]pyridin-2-yl)-1H-pyrazolo[3,4-c]pyridin-5-yl)pyridin-3-yl)cyclohexanecarboxamide] | > 10000 | 10.8
17 | c1ccc(-c2cc3c(-c4cc5c(-c6ccncc6)ccnc5[nH]4)n[nH]c3cn2)nc1 [Compound 140, 5-(Pyridin-2-yl)-3-(4-(pyridin-4-yl)-1H-pyrrolo[2,3-b]pyridin-2-yl)-1H-pyrazolo[3,4-c]pyridine] | > 10000 | 10.5
18 | c1cc(N2CCCCC2)c2cc(-c3n[nH]c4cnc(-c5cncc(CN6CCCC6)c5)cc34)[nH]c2n1 [Compound 182, 3-(4-(Piperidin-1-yl)-1H-pyrrolo[2,3-b]pyridin-2-yl)-5-(5-(pyrrolidin-1-ylmethyl)pyridin-3-yl)-1H-pyrazolo[3,4-c]pyridine] | 4510 | 
19 | O=C(Nc1cncc(-c2cc3c(-c4cc5c(N6CCCCC6)ccnc5[nH]4)n[nH]c3cn2)c1)C1CC1 [Compound 188, N-(5-(3-(4-(Piperidin-1-yl)-1H-pyrrolo[2,3-b]pyridin-2-yl)-1H-pyrazolo[3,4-c]pyridin-5-yl)pyridin-3-yl)cyclopropanecarboxamide] | 1780 | 
20 | O=C(Cc1ccccc1)Nc1cncc(-c2cc3c(-c4cc5cccnc5[nH]4)n[nH]c3cn2)c1 [Compound 262, N-(5-(3-(1H-Pyrrolo[2,3-b]pyridin-2-yl)-1H-pyrazolo[3,4-c]pyridin-5-yl)pyridin-3-yl)-2-phenylacetamide] | > 10000 | 45.5
21 | O=C(Nc1cncc(-c2cc3c(-c4cc5cccnc5[nH]4)n[nH]c3cn2)c1)c1ccccc1 [Compound 263, N-(5-(3-(1H-Pyrrolo[2,3-b]pyridin-2-yl)-1H-pyrazolo[3,4-c]pyridin-5-yl)pyridin-3-yl)benzamide] | > 10000 | 55.3
22 | O=C(Nc1cncc(-c2cc3c(-c4cc5cccnc5[nH]4)n[nH]c3cn2)c1)C1CCCCC1 [Compound 275, N-(5-(3-(1H-Pyrrolo[2,3-b]pyridin-2-yl)-1H-pyrazolo[3,4-c]pyridin-5-yl)pyridin-3-yl)cyclohexanecarboxamide] | 2520 | 
23 | Nc1cncc(-c2cc3c(-c4cc5c(-c6ccoc6)ccnc5[nH]4)n[nH]c3cn2)c1 [Compound 311, 5-(3-(4-(Furan-3-yl)-1H-pyrrolo[2,3-b]pyridin-2-yl)-1H-pyrazolo[3,4-c]pyridin-5-yl)pyridin-3-amine] | 1030 | 
24 | CN(C)CCNc1cc(F)cc(-c2ccnc3[nH]c(-c4n[nH]c5cnc(-c6ccncc6)cc45)cc23)c1 [Compound 466, N^1-(3-Fluoro-5-(2-(5-(pyridin-4-yl)-1H-pyrazolo[3,4-c]pyridin-3-yl)-1H-pyrrolo[2,3-b]pyridin-4-yl)phenyl)-N^2,N^2-dimethylethane-1,2-diamine] | 1740 | 
